Data taken from patent US10828301B2, “2,4-pyrimidinediamine compounds and their uses” (Rigel Pharmaceuticals, Inc, priority 2002, dated 2020).

How the values were obtained:
[1] = system: cultured human mast cells (CHMC); assay: CHMC low cell density ionomycin activation: tryptase assay; assay type: cell-based; settings: Homo sapiens, Mast cell, Low Density CHMC, ionomycin activation, tryptase readout; read-out: CHMC Ionomycin Tryptase
[2] = system: cultured human mast cells (CHMC); assay: CHMC low cell density IgE activation: tryptase and LTC4 assays; assay type: cell-based; settings: Homo sapiens, Mast cell, Low Density CHMC, anti-IgE activation, tryptase readout; read-out: CHMC anti-IgE Tryptase
In short: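 Degranulation measured after 30 min anti-IgE challenge at 37° C of CHMC plated at 1000-1500 cells/well following 1 h preincubation. Readouts: LTC4 by ELISA on donor-specific diluted supernatants, and tryptase activity from a 30 min room-temperature substrate reaction.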

Compound	IC50 [1]	IC50 [2]
CC(C)Oc1ccc(Nc2ncc(F)c(Nc3ccc(OC(C)C)cc3)n2)cc1 [Compound R926701, N2,N4-Bis(4-isopropoxyphenyl)-5-fluoro-2,4-pyrimidinediamine]	> 10 µM	2.2 µM
CC(C)(CO)NC(=O)c1cc2cc(Nc3ncc(F)c(Nc4cccc(O)c4)n3)ccc2o1 [Compound R926715, 5-Fluoro-N2-[2-(2-hydroxy-1,1-dimethylethylamino)carbonylbenzofuran-5-yl]-N4-(3-hydroxyphenyl)-2,4-pyrimidinediamine]	> 10 µM	0.588 µM
O=S(=O)(c1ccc(Nc2ncc(F)c(Nc3ccc4c(c3)OCCO4)n2)cc1)N1CCCC1 [Compound R926716, N4-(3,4-Ethylenedioxyphenyl)-5-fluoro-N2-[4-(tetrahydro-(1H)-pyrrol-1-ylsulfonyl)phenyl]-2,4-pyrimidinediamine]	> 10 µM	1.06 µM
Fc1cnc(NCCCN2CCN(Cc3c(F)cccc3Cl)CC2)nc1Nc1ccc2c(c1)OCCO2 [Compound R926717, N2-[3-[4-(2-Chloro-6-fluorobenzyl)piperazino]propyl]-N4-(3,4-ethylenedioxyphenyl)-5-fluoro-2,4-pyrimidinediamine]	> 10 µM	7.87 µM
CC(C)(C)c1ccc(Nc2nc(Nc3ccc4c(c3)CC(C(=O)O)O4)ncc2F)cc1 (stereo not shown) [Compound R926720, N4-(4-tert-Butylphenyl)-5-fluoro-N2-[2,3-dihydro-2-(carboxy)benzofuran-5-yl]-2,4-pyrimidinediamine]	> 10 µM	1.55 µM
Fc1cnc(Nc2ccc3c(c2)OCCO3)nc1NCc1csc2ccc(Cl)cc12 [Compound R926721, N4-[(5-Chloro-1-benzothiophen-3-yl)methyl]-N2-(3,4-ethylenedioxyphenyl)-5-fluoro-2,4-pyrimidinediamine]	> 10 µM	4.44 µM
Oc1cccc(Nc2ncc(F)c(NCc3csc4ccc(Cl)cc34)n2)c1 [Compound R926722, N4-[(5-Chloro-1-benzothiophen-3-yl)methyl]-5-fluoro-N2-(3-hydroxyphenyl)-2,4-pyrimidinediamine]	> 10 µM	5.96 µM

Results, then the compound that gave them:

IC50 [1]	IC50 [2]	Compound
> 10 µM	> 10 µM	CCOC(=O)Cc1ccc(Nc2ncc(C(F)(F)F)c(Nc3ccc(CC(=O)OCC)cc3)n2)cc1 [Compound R926663, N2,N4-Bis[4-(ethoxycarbonylmethyl)phenyl]-5-trifluoromethyl-2,4-pyrimidinediamine]
> 10 µM	0.63 µM	Oc1ccc(Nc2ncc(F)c(Nc3ccc(O)c(Cl)c3)n2)cc1Cl [Compound R926675, N2,N4-Bis(3-chloro-4-hydroxyphenyl)-5-fluoro-2,4-pyrimidinediamine]
> 10 µM	0.775 µM	Oc1ccc(Nc2ncc(F)c(Nc3ccc(O)c(F)c3)n2)cc1F [Compound R926681, N2,N4-Bis(3-fluoro-4-hydroxyphenyl)-5-fluoro-2,4-pyrimidinediamine]
> 10 µM	8.41 µM	CC(=O)Nc1cccc(Nc2ncc(F)c(Nc3cccc(NC(C)=O)c3)n2)c1 [Compound R926682, N2,N4-Bis(3-acetamidophenyl)-5-fluoro-2,4-pyrimidinediamine]
> 10 µM	10 µM	Oc1ccc(Nc2ncc(F)c(Nc3ccc(O)cc3F)n2)c(F)c1 [Compound R926683, N2,N4-Bis(2-fluoro-4-hydroxyphenyl)-5-fluoro-2,4-pyrimidinediamine]
> 10 µM	2.25 µM	COc1cc(Nc2ncc(F)c(Nc3cc(OC)c(OC)c(OC)c3)n2)cc(OC)c1OC [Compound R926688, N2,N4-Bis(3,4,5-trimethoxyphenyl)-5-fluoro-2,4-pyrimidinediamine]
> 10 µM	0.146 µM	COC(=O)c1cc2cc(Nc3ncc(F)c(Nc4ccc5c(c4)OCCO5)n3)ccc2o1 [Compound R926690, N4-(3,4-Ethylenedioxyphenyl)-5-fluoro-N2-[2-(methoxycarbonyl)benzofuran-5-yl]-2,4-pyrimidinediamine]
